Reference: patent US20220017433A1 (UNIVERSITÄT ZÜRICH, priority 2018, published 2022)

Experiment: Water solubility of the chelating compounds
Format: physicochemical
Conditions: aqueous stock solution, pH lowered with HCl

With Desferrioxamine-p-arylazide [DFO-ArN3] the “pH below which the compound starts to precipitate slowly” value was ~9.
